Experimental data from patent US20110190345A1, “Treatment of Psychosis with a 5HT2A Antagonist and a Metabotropic Glutamate Receptor Agonist or Potentiator” (priority 2007, published 2011).

Assays:
Format in all cases: in vivo, rat
Male Wistar rats [1] = test: MK-801-induced psychomotor activity (locomotor activity, total distance traveled); conditions: 5-HT2A antagonist 0.2 mpk, mGluR2/3 agonist 1 mpk; for reduction of the response to MK-801: 90 minutes after 0.2 mg/kg s.c. MK-801; for psychomotor activity, total distance traveled after MK-801: summed over 90 minutes after 0.2 mg/kg s.c. MK-801, control≃200 cm, MK-801 alone≃2000 cm
Method: Male Wistar rats were received on site and housed for 7 days with food and water ad libitum. […] Thirty minutes later animals received a subcutaneous injection of saline or 0.2 mg/kg MK-801 and were placed back into the locomotor activity monitors for 90 minutes. Total distance traveled was used to assess locomotor behavior. The distance traveled is summed over the ninety minutes after MK-801 or saline treatment.

Male Wistar rats [2] = test: Amphetamine-induced psychomotor activity (locomotor activity, total distance traveled); conditions: FIG. 3; summed over 90 minutes after 1.5 mg/kg s.c. amphetamine; 5-HT2a antagonist 0.2 mpk, mGluR2/3 agonist 1 mpk
Text: (§1) Compounds with antipsychotic efficacy are known to block amphetamine-induced psychomotor activity in rats (Bardi et al., Behavioural Pharmacology (2007), 18(2), 103-118). Male Wistar rats were received on site and housed for 7 days with food and water ad libitum. On the day of testing, animals were given vehicle (water for mGluR2/3 agonist, 1% Tween for 5-HT2A antagonist), the 5-HT2A antagonist volinanserin (0.2 mpk), the mGluR2/3 agonist (−)-2-oxa-4-aminobicyclo[3.1.0]hexane-4,6-dicarboxylate (1 mpk), or both the 5-HT2A antagonist (0.2 mpk) and the mGluR2/3 agonist (1 mpk) and placed in locomotor activity monitors. Thirty minutes later animals received a subcutaneous injection of saline or 1.5 mg/kg amphetamine and placed back into the locomotor activity monitors for 90 minutes. Total distance traveled was used to assess locomotor behavior. The distance traveled is summed over the ninety minutes after amphetamine or saline treatment.

Male Wistar rats [3] = test: Ketamine-induced psychomotor activity (locomotor activity, total distance traveled); conditions: mGluR2/3 agonist 1 mpk; for whether ketamine increased psychomotor activity (locomotor response): FIG. 2, first 60 minutes after ketamine or saline, 5-HT2a antagonist 0.2 mpk
Text: as §1, with “block Ketamine-induced” for “block amphetamine-induced”, “or 37.5” for “or 1.5”, “mg/kg Ketamine” for “mg/kg amphetamine”, “into the'locomotor” for “into the locomotor”, “after ketamine” for “after amphetamine”
Similarly, locomotor response was determined over the first 60 minutes after receiving ketamine or saline as a function of treatment with vehicle, the 5-HT2a antagonist (0.2 mpk), the mGluR2/3 agonist (1 mpk), or the 5-HT2a antagonist (0.2 mpk)+the mGluR2/3 agonist (1 mpk).

Row | Structure (SMILES) | reduction of the response to MK-801 (Male Wistar rats [1]) | psychomotor activity, total distance traveled after MK-801 (Male Wistar rats [1]) | influence on amphetamine-induced psychomotor activity (Male Wistar rats [2]) | response to ketamine (psychomotor activity, distance traveled) relative to the 0-0-Ketamine group (Male Wistar rats [3]; FIG. 1, summed over 90 minutes after 37.5 mg/kg s.c. ketamine, 5-HT2A antagonist 0.2 mpk, given 30 min before) | whether ketamine increased psychomotor activity (locomotor response) (Male Wistar rats [3])
1 | NC1(C(=O)O)COC2C(C(=O)O)C21 (single isomer, unassigned; (-)) [mGluR2/3 agonist, (−)-2-oxa-4-aminobicyclo[3.1.0]hexane-4,6-dicarboxylate] | Neither the mGluR2/3 agonist nor the 5-HT2A antagonist given alone reduced the response to MK-801 | ~1900 cm | did not influence amphetamine-induced psychomotor activity | decreased the response to ketamine | ketamine increased psychomotor activity
2 | COc1cccc([C@H](O)C2CCN(CCc3ccc(F)cc3)CC2)c1OC [5-HT2A antagonist, (+)-alpha-(2,3-dimethoxyphenyl)-1-[2-(4 fluorophenyl)ethyl]-4-piperidine methanol] | Neither the mGluR2/3 agonist nor the 5-HT2A antagonist given alone reduced the response to MK-801 | ~2500 cm | did not influence amphetamine-induced psychomotor activity | – | ketamine increased psychomotor activity
